What was measured:
[1] = Cell cytotoxicity assay (MTS), CC90 as reported in Table 1, cell line not stated; type: cell-based; details: human; MTS assay; 8 days incubation; cell line not given
Outline: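 MTS read-out (490 nm, 2 h dye step) after 8-day exposure at 37° C. Huh7, HepG2, BxPC3 were seeded at 2×10^3 and CEM at 5×10^3 cells/well, with compound serially diluted from 100 μM. CC90 comes from comparison with untreated control wells.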

[2] = system: HCV Replicon 1b; assay: HCV inhibition assay, HCV replicon 1b (Clone A or ET-lunet cells; RT-PCR or luciferase reporter); type: cell-based; details: Hepatitis C virus, 96 h, HCV replicon 1b; 4 days incubation; read-out: Replicon 1b potency EC90
Outline: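 Inhibition read either as luciferase signal (ET replicon) or as HCV 5′-NTR RNA by RT-PCR relative to rRNA, % = (1−2^−ΔΔCt)×100, against DMSO controls, giving EC50 and EC90. Cells: Clone A or ET-lunet, seeded 1500 or 3000/well, exposed 4 days at 37 °C, 5% CO2, 0.5% DMSO.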

Compound | CC90 at 8 days [1] [µM] | EC90 [2] [µM]
CC[C@@H](C)[C@H]1C(=O)N[C@@H](c2ccccc2)CN1C(=O)c1cc(-c2ccc(F)cc2)on1 [Compound 339, (3S,6S)-3-((R)-sec-butyl)-4-(5-(4-fluorophenyl)isoxazole-3-carbonyl)-6-phenylpiperazin-2-one] | > 10 | 0.8
CC[C@@H](C)[C@H]1C(=O)N[C@@H](c2ccccc2)CN1C(=O)[C@@H]1C[C@H]1c1ccccc1 [Compound 341, (3S,6S)-3-((R)-sec-butyl)-6-phenyl-4-((1R,2R)-2-phenylcyclopropanecarbonyl)-piperazin-2-one] | > 10 | 2.54
CC(C)(C)C[C@H]1C(=O)N[C@@H](c2ccccc2)CN1C(=O)c1cc(-c2ccc(F)cc2)on1 [Compound 342, (3S,6S)-4-(5-(4-fluorophenyl)isoxazole-3-carbonyl)-3-neopentyl-6-phenylpiperazin-2-one] | > 10 | 0.2
CC(C)(C)C[C@H]1C(=O)N[C@@H](c2ccccc2)CN1C(=O)[C@@H]1C[C@H]1c1ccccc1 [Compound 344, (3S,6S)-3-neopentyl-6-phenyl-4-((1R,2R)-2-phenylcyclopropanecarbonyl)piperazin-2-one] | > 10 | 1
CC(C)C[C@H]1C(=O)N[C@@H](c2ccc(F)cc2)CN1C(=O)c1cc(-c2ccc(F)cc2)on1 [Compound 345, (3S,6S)-6-(4-fluorophenyl)-4-(5-(4-fluorophenyl)isoxazole-3-carbonyl)-3-isobutyl-piperazin-2-one] | > 10 | 0.65
CC(C)C[C@H]1C(=O)N[C@@H](c2ccc(F)cc2)CN1C(=O)[C@@H]1C[C@H]1c1ccccc1 [Compound 347, (3S,6S)-6-(4-fluorophenyl)-3-isobutyl-4-((1R,2R)-2-phenylcyclopropanecarbonyl)-piperazin-2-one] | > 10 | 2.05
Cc1ccc([C@H]2CN(C(=O)c3cc(-c4ccc(F)cc4)on3)[C@@H](CC(C)C)C(=O)N2)cc1 [Compound 348, (3S,6S)-4-(5-(4-fluorophenyl)isoxazole-3-carbonyl)-3-isobutyl-6-(p-tolyl)piperazin-2-one] | > 10 | 1.8
CC(C)C[C@H]1CN(C(=O)c2cn(-c3ccc(Cl)cc3)nn2)[C@@H](CC(C)C)C(=O)N1 [Compound 350, (3S,6S)-4-(1-(4-chlorophenyl)-1H-1,2,3-triazole-4-carbonyl)-3,6-diisobutylpiperazin-2-one] | > 10 | 1.96
CC(C)C[C@H]1CN(C(=O)c2cn(-c3ccc(F)cc3)nn2)[C@@H](CC(C)C)C(=O)N1 [Compound 351, (3S,6S)-4-(1-(4-fluorophenyl)-1H-1,2,3-triazole-4-carbonyl)-3,6-diisobutylpiperazin-2-one] | > 10 | 1.63
CC(C)C[C@H]1C(=O)N[C@@H](c2ccccc2Cl)CN1C(=O)c1cc(-c2ccc(F)cc2)on1 [Compound 352, (3S,6S)-6-(2-chlorophenyl)-4-(5-(4-fluorophenyl)isoxazole-3-carbonyl)-3-isobutyl-piperazin-2-one] | > 10 | 0.21
CC(C)C[C@H]1C(=O)N[C@@H](c2ccccc2Cl)CN1C(=O)[C@@H]1C[C@H]1c1ccccc1 [Compound 354, (3S,6S)-6-(2-chlorophenyl)-3-isobutyl-4-((1R,2R)-2-phenylcyclopropanecarbonyl)-piperazin-2-one] | > 10 | 1.85
CC(C)C[C@H]1C(=O)N[C@@H](c2ccccc2F)CN1C(=O)[C@@H]1C[C@H]1c1ccccc1 [Compound 357, (3S,6S)-6-(2-fluorophenyl)-3-isobutyl-4-((1R,2R)-2-phenylcyclopropanecarbonyl)-piperazin-2-one] | > 10 | 0.52
CC(C)C[C@H]1C(=O)N[C@@H](c2ccc(Cl)cc2)CN1C(=O)c1cc(-c2ccc(F)cc2)on1 [Compound 358, (3S,6S)-6-(4-chlorophenyl)-4-(5-(4-fluorophenyl)isoxazole-3-carbonyl)-3-isobutyl-piperazin-2-one] | > 10 | 1.53
CC(C)C[C@H]1C(=O)N[C@@H](c2ccc(Cl)cc2)CN1C(=O)[C@@H]1C[C@H]1c1ccccc1 [Compound 360, (3S,6S)-6-(4-chlorophenyl)-3-isobutyl-4-((1R,2R)-2-phenylcyclopropanecarbonyl)-piperazin-2-one] | > 10 | 3.64
Cc1ccccc1[C@H]1CN(C(=O)c2cc(-c3ccc(F)cc3)on2)[C@@H](CC(C)C)C(=O)N1 [Compound 361, (3S,6S)-4-(5-(4-fluorophenyl)isoxazole-3-carbonyl)-3-isobutyl-6-(o-tolyl)piperazin-2-one] | > 10 | 1.42
Cc1ccccc1[C@H]1CN(C(=O)[C@@H]2C[C@H]2c2ccccc2)[C@@H](CC(C)C)C(=O)N1 [Compound 363, (3S,6S)-3-isobutyl-4-((1R,2R)-2-phenylcyclopropanecarbonyl)-6-(o-tolyl)piperazin-2-one] | > 10 | 2.07
CC(C)C[C@H]1C(=O)N[C@@H](c2ccc(C(F)(F)F)cc2)CN1C(=O)[C@@H]1C[C@H]1c1ccccc1 [Compound 364, (3S,6S)-3-isobutyl-4-((1R,2R)-2-phenylcyclopropanecarbonyl)-6-(4-(trifluoro-methyl)phenyl)piperazin-2-one] | > 10 | > 10
CC(C)C[C@H]1C(=O)N[C@@H](c2ccc(C(F)(F)F)cc2)CN1C(=O)c1cc(-c2ccc(F)cc2)on1 [Compound 366, (3S,6S)-4-(5-(4-fluorophenyl)isoxazole-3-carbonyl)-3-isobutyl-6-(4-(trifluoromethyl)-phenyl)piperazin-2-one] | > 10 | 6
CC(C)C[C@H]1C(=O)N[C@@H](c2cccc(F)c2)CN1C(=O)c1cc(-c2ccc(F)cc2)on1 [Compound 367, (3S,6S)-6-(3-fluorophenyl)-4-(5-(4-fluorophenyl)isoxazole-3-carbonyl)-3-isobutylpiperazin-2-one] | > 10 | 0.27
CC(C)C[C@H]1C(=O)N[C@@H](c2cccc(F)c2)CN1C(=O)[C@@H]1C[C@H]1c1ccccc1 [Compound 369, (3S,6S)-6-(3-fluorophenyl)-3-isobutyl-4-((1R,2R)-2-phenylcyclopropanecarbonyl)-piperazin-2-one] | > 10 | 1.63
CC(C)C[C@H]1C(=O)N[C@@H](c2ccccc2Cl)CN1C(=O)c1noc(-c2ccc(F)cc2)n1 [Compound 371, (3S,6S)-6-(2-chlorophenyl)-4-(5-(4-fluorophenyl)-1,2,4-oxadiazole-3-carbonyl)-3-isobutylpiperazin-2-one] | > 10 | 0.47
CC(C)C[C@H]1C(=O)N[C@@H](c2ccccc2F)CN1C(=O)c1cc(-c2ccc(F)cc2)no1 [Compound 372, (3S,6S)-6-(2-fluorophenyl)-4-(3-(4-fluorophenyl)isoxazole-5-carbonyl)-3-isobutylpiperazin-2-one] | > 10 | 0.7
CC(C)C[C@H]1C(=O)N[C@@H](c2ccccc2F)CN1C(=O)/C=C/c1ccc(F)cc1F [Compound 374, (3S,6S)-4-((E)-3-(2,4-difluorophenyl)acryloyl)-6-(2-fluorophenyl)-3-isobutylpipera-zin-2-one] | > 10 | 0.75
CC(C)C[C@H]1C(=O)N[C@@H](c2ccccc2)CN1C(=O)c1noc(-c2ccc(F)cc2)c1F [Compound 376, (3S,6S)-4-(4-fluoro-5-(4-fluorophenyl)isoxazole-3-carbonyl)-3-isobutyl-6-phenyl-piperazin-2-one] | > 10 | 0.5
CC(C)C[C@H]1CN(C(=O)c2noc(-c3ccc(F)cc3)c2F)[C@@H](CC(C)C)C(=O)N1 [Compound 379, (3S,6S)-4-(4-fluoro-5-(4-fluorophenyl)isoxazole-3-carbonyl)-3,6-diisobutylpiperazin-2-one] | > 10 | 0.21
CC(C)C[C@H]1C(=O)N[C@@H](c2ccccc2F)CN1C(=O)c1noc(-c2ccc(F)cc2)c1F [Compound 380, (3S,6S)-4-(4-fluoro-5-(4-fluorophenyl)isoxazole-3-carbonyl)-6-(2-fluorophenyl)-3-isobutylpiperazin-2-one] | > 10 | 0.18
CC(C)C[C@H]1C(=O)N[C@@H](C2CCCC2)CN1C(=O)c1noc(-c2ccc(F)cc2)c1F [Compound 381, (3S,6S)-6-cyclopentyl-4-(4-fluoro-5-(4-fluorophenyl)isoxazole-3-carbonyl)-3-isobutylpiperazin-2-one] | > 10 | 0.25
CC(C)C[C@H]1C(=O)N[C@@H](C2CCCCC2)CN1C(=O)c1noc(-c2ccc(F)cc2)c1F [Compound 382, (3S,6S)-6-cyclohexyl-4-(4-fluoro-5-(4-fluorophenyl)isoxazole-3-carbonyl)-3-isobutylpiperazin-2-one] | > 10 | 0.37
CC(C)C[C@H]1CN(C(=O)c2noc(-c3ccc(F)cc3F)c2F)[C@@H](CC(C)C)C(=O)N1 [Compound 383, (3S,6S)-4-(5-(2,4-difluorophenyl)-4-fluoroisoxazole-3-carbonyl)-3,6-diisobutyl-piperazin-2-one] | > 10 | 0.71
CC(C)C[C@H]1C(=O)N[C@@H](c2ccccc2)CN1C(=O)c1noc(-c2ccc(F)cc2F)c1F [Compound 385, (3S,6S)-4-(5-(2,4-difluorophenyl)-4-fluoroisoxazole-3-carbonyl)-3-isobutyl-6-phenylpiperazin-2-one] | > 10 | 0.5
